The test deals with T1, N-type Ca2+ channel (Homo sapiens, UniProt Q00975).
T1 construct: host or cells: IMR-32 cells, differentiated with dibutyryl cAMP and bromodeoxyuridine
Nature of the test: Measurement of N-type Ca2+ channel blocking potencies in IMR-32 cells using the fluorescent Ca2+ indicator Indo-1. It counts as cell-based. Particulars: for inhibition at 1 µM / IMR 32 % of Blockade @ 1 μM: 1 μM compound; for inhibition at 1 µM: read-out: IMR 32 % of Blockade @ 1 μM; for inhibition at 10 µM / IMR 32 % of Blockade @ 10 μM: 10 μM compound; for inhibition at 10 µM: read-out: IMR 32 % of Blockade @ 10 μM; for IC50: K+-stimulated Ca2+ flux, 5 μM nitrendipine to block L-type channels. How it is done:
Measurement of N-type Ca^2+ Channel Blocking Potencies of Compounds in IMR-32 Cells Using the Fluorescent Ca^2+Indicator Indo-1
IMR-32 cells are a human tumoral cell line of neural origin. […] Calcium flux into these cells may be induced by stimulation with elevated potassium concentrations. The L-channel component of calcium flux may be blocked by adding 5 μM nitrendipine. The remaining component of calcium entry into the IMR-32 cells is due to calcium flux through N-type calcium channels. Intracellular calcium concentrations are measured using the fluorescent calcium indicator Indo-1. The effect of drug concentration on calcium uptake is studied.
The IMR-32 cell line was obtained from the American Type Culture Collection (Rockville, Md.). Cells were grown in Eagle's Minimum Essential Medium with Earle's salts supplemented with 10% fetal bovine serum, 2 mM L-Gln and antibiotic/antimycotic mixture (Gibco). […] After 7 to 13 days of differentiation, cells were detached using 0.5 mM EDTA and loaded with 5 μM Indo-1 acetoxymethyl ester (Molecular Probes, Eugene, Oreg.) at 30° C. for 45 minutes. Loaded cells were washed twice, resuspended (˜10^7 cells/mL) in assay buffer (10 mM HEPES/Tris pH 7.4 in Hank's Balanced Salt Solution without bicarbonate or phenol red containing 0.5% bovine serum albumin) and kept on ice until use. Fluorescence measurements were carried out in a Photon Technology International (PTI, South Brunswick, N.J.) Model RF-F3004 spectrofluorometer with dual emission monochromators using excitation at […] and emission at 400 and 490 nm. The instrument was equipped with a thermostated cuvette holder with stirring capabilities as well as with a computer-controlled pump which allowed for reagent addition during measurement. Instrument control and data collection was done by PTI's OSCAR software running on an IBM compatible computer. Different concentrations of the test compounds (60 μL in dimethyl sulfoxide) were added to 5.94 mL of assay buffer containing approximately 3×10^6 loaded cells, and 5 μM Nitrendipine (in […] EtOH) to block L-type Ca^2+ channels. Samples were incubated for 10 minutes at 30° C. and then aliquoted into three 10×10 mm disposable acrylic cuvettes. Emission signals at 400 and 490 nm were acquired from each cuvette at 30° C. for 50 seconds. At 20 seconds after the start of reading, cells were depolarized by the addition of 160 μL of stimulation solution (1 M KCl, 68 mM CaCl2) to the cuvette via the computer-controlled pump. Ratio of dual emission signals (400 nm/490 nm), which is proportional to intracellular Ca^2+ concentration, was plotted against time, and the difference between maximal response after stimulation and basal value (before stimulation) was determined. Values obtained in this way were plotted as a function of drug concentration. IC50 values of test compounds were calculated by fitting a four-parameter logistic function to the data using the least squares method.

Each structure is given as a SMILES string. Where a name gives a salt, the structure may show the parent alone.

T1 sequence (Q00975 whole entry): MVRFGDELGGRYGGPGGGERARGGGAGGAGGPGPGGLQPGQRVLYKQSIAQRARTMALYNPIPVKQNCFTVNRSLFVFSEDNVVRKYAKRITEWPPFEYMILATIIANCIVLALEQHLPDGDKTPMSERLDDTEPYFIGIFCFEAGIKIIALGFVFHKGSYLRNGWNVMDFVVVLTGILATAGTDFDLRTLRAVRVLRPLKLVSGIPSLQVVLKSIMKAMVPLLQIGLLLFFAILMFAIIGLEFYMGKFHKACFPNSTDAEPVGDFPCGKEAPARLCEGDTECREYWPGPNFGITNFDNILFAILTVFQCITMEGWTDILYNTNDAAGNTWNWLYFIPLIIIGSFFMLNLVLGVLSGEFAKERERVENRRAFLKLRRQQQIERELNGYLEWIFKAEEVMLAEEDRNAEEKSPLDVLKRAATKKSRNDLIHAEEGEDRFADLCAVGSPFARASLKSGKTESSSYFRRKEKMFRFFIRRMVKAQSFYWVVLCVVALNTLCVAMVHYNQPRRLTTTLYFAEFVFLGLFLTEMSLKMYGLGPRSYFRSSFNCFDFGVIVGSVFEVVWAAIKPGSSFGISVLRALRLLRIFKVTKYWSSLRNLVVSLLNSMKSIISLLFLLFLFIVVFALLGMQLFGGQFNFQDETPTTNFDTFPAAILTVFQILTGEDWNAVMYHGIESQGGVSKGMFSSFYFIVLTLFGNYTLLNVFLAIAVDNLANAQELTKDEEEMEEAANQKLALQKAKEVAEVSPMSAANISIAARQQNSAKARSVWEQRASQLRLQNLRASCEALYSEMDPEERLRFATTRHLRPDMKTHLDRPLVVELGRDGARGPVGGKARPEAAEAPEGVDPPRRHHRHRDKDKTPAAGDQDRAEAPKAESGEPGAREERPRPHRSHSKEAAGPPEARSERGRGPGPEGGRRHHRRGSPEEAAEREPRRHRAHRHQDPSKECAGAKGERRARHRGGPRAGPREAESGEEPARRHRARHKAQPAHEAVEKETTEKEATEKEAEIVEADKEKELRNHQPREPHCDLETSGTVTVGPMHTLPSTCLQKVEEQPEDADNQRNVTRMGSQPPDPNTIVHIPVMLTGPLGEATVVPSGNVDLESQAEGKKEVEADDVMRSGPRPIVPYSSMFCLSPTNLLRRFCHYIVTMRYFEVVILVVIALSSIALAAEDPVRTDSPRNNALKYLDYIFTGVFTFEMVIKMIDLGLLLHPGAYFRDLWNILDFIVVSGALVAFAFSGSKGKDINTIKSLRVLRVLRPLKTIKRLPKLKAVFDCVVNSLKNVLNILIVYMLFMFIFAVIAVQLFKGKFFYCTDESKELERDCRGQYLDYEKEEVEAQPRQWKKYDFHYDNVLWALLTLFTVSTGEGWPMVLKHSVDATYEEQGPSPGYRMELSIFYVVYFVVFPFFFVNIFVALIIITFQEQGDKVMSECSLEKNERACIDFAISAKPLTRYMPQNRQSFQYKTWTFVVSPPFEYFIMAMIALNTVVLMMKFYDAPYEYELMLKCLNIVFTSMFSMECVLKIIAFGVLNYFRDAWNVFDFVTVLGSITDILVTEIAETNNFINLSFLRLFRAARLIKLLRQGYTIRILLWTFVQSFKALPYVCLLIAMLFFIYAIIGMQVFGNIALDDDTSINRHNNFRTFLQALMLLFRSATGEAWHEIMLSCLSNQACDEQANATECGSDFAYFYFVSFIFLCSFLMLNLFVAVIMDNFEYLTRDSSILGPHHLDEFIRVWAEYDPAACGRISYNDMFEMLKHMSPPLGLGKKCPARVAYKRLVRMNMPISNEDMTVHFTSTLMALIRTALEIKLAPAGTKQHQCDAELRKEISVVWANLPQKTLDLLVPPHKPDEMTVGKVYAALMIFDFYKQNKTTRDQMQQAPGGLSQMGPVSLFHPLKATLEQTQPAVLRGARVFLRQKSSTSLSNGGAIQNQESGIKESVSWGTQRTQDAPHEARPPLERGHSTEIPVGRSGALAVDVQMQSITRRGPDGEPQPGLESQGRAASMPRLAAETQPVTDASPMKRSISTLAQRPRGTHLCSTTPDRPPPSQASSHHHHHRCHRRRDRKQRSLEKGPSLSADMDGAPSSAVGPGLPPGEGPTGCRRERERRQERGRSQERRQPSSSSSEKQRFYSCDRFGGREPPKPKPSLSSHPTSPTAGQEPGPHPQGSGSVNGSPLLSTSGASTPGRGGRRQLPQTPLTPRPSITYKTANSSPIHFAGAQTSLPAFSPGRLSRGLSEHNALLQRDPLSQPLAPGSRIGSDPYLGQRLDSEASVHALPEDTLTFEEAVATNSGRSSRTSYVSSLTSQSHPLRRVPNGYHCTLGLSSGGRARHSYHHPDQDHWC
T1 sequence (P54289 25-956 partner limits assumed): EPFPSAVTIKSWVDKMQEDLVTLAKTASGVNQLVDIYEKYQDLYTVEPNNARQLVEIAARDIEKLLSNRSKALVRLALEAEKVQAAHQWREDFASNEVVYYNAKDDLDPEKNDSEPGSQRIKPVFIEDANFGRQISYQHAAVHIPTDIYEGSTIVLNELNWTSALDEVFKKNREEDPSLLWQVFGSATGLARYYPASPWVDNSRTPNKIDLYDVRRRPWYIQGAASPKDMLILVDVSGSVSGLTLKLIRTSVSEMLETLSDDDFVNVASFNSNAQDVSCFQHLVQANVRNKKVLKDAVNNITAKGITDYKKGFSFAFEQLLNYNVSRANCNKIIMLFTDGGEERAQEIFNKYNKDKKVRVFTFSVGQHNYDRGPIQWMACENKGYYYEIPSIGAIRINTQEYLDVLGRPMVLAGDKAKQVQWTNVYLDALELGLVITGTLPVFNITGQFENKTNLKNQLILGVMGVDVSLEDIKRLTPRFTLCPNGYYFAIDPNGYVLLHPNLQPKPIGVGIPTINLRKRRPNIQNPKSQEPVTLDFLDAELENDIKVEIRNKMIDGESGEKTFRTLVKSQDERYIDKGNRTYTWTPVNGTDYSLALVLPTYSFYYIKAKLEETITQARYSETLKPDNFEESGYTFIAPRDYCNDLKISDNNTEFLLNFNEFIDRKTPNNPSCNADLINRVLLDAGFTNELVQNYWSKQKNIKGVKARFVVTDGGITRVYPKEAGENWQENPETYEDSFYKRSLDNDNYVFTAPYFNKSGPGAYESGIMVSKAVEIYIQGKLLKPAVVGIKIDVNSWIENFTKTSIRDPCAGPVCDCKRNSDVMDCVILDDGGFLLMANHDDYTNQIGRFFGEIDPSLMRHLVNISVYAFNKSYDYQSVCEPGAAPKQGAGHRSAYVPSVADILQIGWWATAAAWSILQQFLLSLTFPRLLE
T1 sequence (P54289 957-1103 partner limits assumed): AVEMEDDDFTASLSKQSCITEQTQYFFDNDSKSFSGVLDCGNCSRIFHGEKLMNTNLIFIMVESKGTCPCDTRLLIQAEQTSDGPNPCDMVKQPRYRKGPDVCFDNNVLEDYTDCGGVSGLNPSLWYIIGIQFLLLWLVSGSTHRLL
T1 sequence (Q02641 whole entry partner): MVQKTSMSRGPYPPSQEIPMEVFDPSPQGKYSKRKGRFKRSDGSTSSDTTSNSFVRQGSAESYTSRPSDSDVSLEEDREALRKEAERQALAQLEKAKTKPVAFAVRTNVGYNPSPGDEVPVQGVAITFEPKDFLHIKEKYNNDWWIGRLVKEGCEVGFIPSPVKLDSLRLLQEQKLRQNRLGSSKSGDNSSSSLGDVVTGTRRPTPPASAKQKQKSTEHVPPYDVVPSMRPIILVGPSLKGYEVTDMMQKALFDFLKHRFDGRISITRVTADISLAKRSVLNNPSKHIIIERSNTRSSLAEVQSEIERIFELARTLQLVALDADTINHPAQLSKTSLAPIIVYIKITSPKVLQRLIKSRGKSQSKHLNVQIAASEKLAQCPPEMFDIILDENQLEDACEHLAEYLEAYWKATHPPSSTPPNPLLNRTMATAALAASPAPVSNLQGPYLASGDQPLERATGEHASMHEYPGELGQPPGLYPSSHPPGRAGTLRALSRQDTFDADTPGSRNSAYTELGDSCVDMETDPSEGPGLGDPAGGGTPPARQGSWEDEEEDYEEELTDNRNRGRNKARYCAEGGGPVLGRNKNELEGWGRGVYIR

For `CC(C)=CCN(c1ccc(OCc2ccccc2)cc1)C1CCCN(C(=O)[C@@H](N)CC(C)C)C1` (mixture of isomers) [Example 45, (S, R/S)-2-Amino-1-{3-[(4-benzyloxy-phenyl)-(3-methyl-but-2-enyl)-amino]-piperidin-1-yl}-4-methyl-pentan-1-one], under “5 μM nitrendipine”, the inhibition at 1 µM worked out at 40% and the inhibition at 10 µM is 100%.

Consider `CC(C)=CCN(c1ccc(OCc2ccccc2)cc1)C1CCCN(C(=O)[C@H](CC(C)C)NC(=O)N2CCCCCC2)C1` (mixture of isomers) [Example 46, (S,R/S)-Azepane-1-carboxylic acid (1-{3-[(4-benzyloxy-phenyl)-(3-methyl-but-2-enyl)-amino]-piperidine-1-carbonyl}-3-methyl-butyl)-amide], for which, where the note is “5 μM nitrendipine”, the inhibition at 1 µM stood at 41% and the inhibition at 10 µM came to 91%.

For the compound `CC(C)=CCN(C[C@H](C)NC(=O)[C@H](CC(C)C)NC(=O)N1CCCCCC1)c1ccc(OCc2ccccc2)cc1` (relative stereo) [Example 2, [S-(R*,R*)]-Azepane-1-carboxylic acid (1-{2-[(4-benzyloxy-phenyl)-(3-methyl-but-2-enyl)-amino]-1-methyl-ethylcarbamoyl}-3-methyl-butyl)-amide], where the note is “5 μM nitrendipine”, the “IMR 32 % of Blockade @ 1 μM” value worked out at 50% @ 1.

As for `CC(C)=CCN(C[C@H](C)NC(=O)[C@H](CC(C)C)N(C)C)c1ccc(OCc2ccccc2)cc1` (relative stereo) [Example 14, [S-(R*,R*)]-2-Dimethylamino-4-methyl-pentanoic acid {2-[(4-benzyloxy-phenyl)-(3-methyl-but-2-enyl)-amino]-1-methyl-ethyl}-amide], under “5 μM nitrendipine”, the “IMR 32 % of Blockade @ 1 μM” value was 36% and the “IMR 32 % of Blockade @ 10 μM” value is given as 86%.

As to `CC(C)=CCN[C@@H](CC(C)C)C(=O)N[C@@H](C)CN(CC=C(C)C)c1ccc(OCc2ccccc2)cc1` (relative stereo) [Example 15, [S-(R*,R*)]-4-Methyl-2-(3-methyl-but-2-enylamino)-pentanoic acid {2-[(4-benzyloxy-phenyl)-(3-methyl-but-2-enyl)-amino]-1-methyl-ethyl}-amide], for the setting “0.3 μM compound, 5 μM nitrendipine”, the “IMR 32 % of Blockade @ 0.3 μM” value is on record as 21%. Moreover, the “IMR 32 % of Blockade @ 3 μM” value (3 μM compound, 5 μM nitrendipine) amounted to 65%.

For the compound `CC(C)=CCN(C[C@H](C)NC(=O)[C@H](CC(C)C)NCCC(C)C)c1ccc(OCc2ccccc2)cc1` (relative stereo) [Example 16, [S-(R*,R*)]-4-Methyl-2-(3-methyl-butylamino)-pentanoic acid {2-[(4-benzyloxy-phenyl)-(3-methyl-but-2-enyl)-amino]-1-methyl-ethyl}-amide], under “5 μM nitrendipine”, the “IMR 32 % of Blockade @ 1 μM” value worked out at 36% and the “IMR 32 % of Blockade @ 10 μM” value stood at 86%.

As to `CC(C)=CCN(C[C@H](C)NC(=O)[C@H](CC(C)C)N(CCC(C)C)CCC(C)C)c1ccc(OCc2ccccc2)cc1` (relative stereo) [Example 18, [S-(R*,R*)]-2-[Bis-(3-methyl-butyl)-amino]-4-methyl-pentanoic acid {2-[(4-benzyloxy-phenyl)-(3-methyl-but-2-enyl)-amino]-1-methyl-ethyl}-amide], under “5 μM nitrendipine”, the “IMR 32 % of Blockade @ 1 μM” value worked out at 67% and the “IMR 32 % of Blockade @ 10 μM” value was determined as 71%.

On to `CC(C)=CCN(C[C@H](C)NC(=O)[C@H](CC(C)C)N(CC=C(C)C)CC=C(C)C)c1ccc(OCc2ccccc2)cc1` (relative stereo) [Example 19, [S-(R*,R*)]-2-{Bis]-(3-methyl-but-2-enylamino)-4-Methyl-pentanoic acid {2-[(4-benzyloxy-phenyl)-(3-methyl-but-2-enyl)-amino]-1-methyl-ethyl 1-amide], for which, where the note is “5 μM nitrendipine”, the “IMR 32 % of Blockade @ 1 μM” value amounted to 74% and the “IMR 32 % of Blockade @ 10 μM” value was determined as 70%.

`CC(C)=CCN(c1ccc(C#CC2(O)CCCCC2)cc1)C1CCN(C(=O)C(CC(C)C)NC(=O)N2CCCCCC2)CC1` (stereo in doubt) [Example 43, (S)-Azepane-1-carboxylic acid (1-{4-[[4-(1-hydroxy-cyclohexylethynyl)-phenyl]-(3-methyl-but-2-enyl)-amino]-piperidine-1-carbonyl}-3-methyl-butyl)-amide] registered a concentration for half-maximal inhibition (IC50) of 3400 nM.

For the compound `CC(C)=CCN(c1ccc(OCc2ccccc2)cc1)C1CCN(C(=O)[C@H](CC(C)C)NC(=O)N2CCCCCC2)CC1` [Example 5, (S)-Azepane-1-carboxylic acid (1-{4-[(4-benzyloxy-phenyl)-(3-methyl-but-2-enyl)-amino]-piperidine-1-carbonyl}-3-methyl-butyl)-amide hydrochloride salt], the IC50 came to 500 nM. This IC50 is about 6.8-fold lower than that of the compound before.

For the compound `CC(C)C[C@H](NC(=O)N1CCCCCC1)C(=O)NC(C)(C)CN(c1ccc(OCc2ccccc2)cc1)C1C=CCCC1` (stereo partly drawn) [Example 8, (S)-Azepane-1-carboxylic acid (1-{2-[(4-benzyloxy-phenyl)-cyclohex-2-enyl-amino]-1,1-dimethyl-ethylcarbamoyl}-3-methyl-butyl)-amide], where the note is “5 μM nitrendipine”, the inhibition at 1 µM came to 55% and the inhibition at 10 µM came to 76%.

`CC(C)=CCN(CC(C)(C)NC(=O)[C@H](CC(C)C)N(C)C)c1ccc(OCc2ccccc2)cc1` [Example 9, (S)-2-Dimethylamino-4-methyl-pentanoic acid {2-[(4-benzyloxy-phenyl)-(3-methyl-but-2-enyl)-amino]-1,1-dimethyl-ethyl}-amide] yielded a 50% inhibitory concentration (IC50) of 1600 nM.

Regarding `CC(C)=CCN(CC(C)(C)NC(=O)[C@H](CC(C)C)N(C)CCC(C)C)c1ccc(OCc2ccccc2)cc1` [Example 11, (S)-4-Methyl-2-[methyl-(3-methyl-butyl)-amino]-pentanoic acid {2-[(4-benzyloxy-phenyl)-(3-methyl-but-2-enyl)-amino]-1.1-dimethyl-ethyl}-amide], where the note is “5 μM nitrendipine”, the “IMR 32 % of Blockade @ 1 μM” value came out at 49% and the “IMR 32 % of Blockade @ 10 μM” value is reported as 91%.

Compound `CC(C)=CCN(CC(C)(C)NC(=O)[C@H](CC(C)C)N(C)C1C=CCCC1)c1ccc(OCc2ccccc2)cc1` (stereo partly drawn) [Example 12, (S)-2-(Cyclohex-2-enyl-methyl-amino)-4-methyl-pentanoic acid {2-[(4-benzyloxy-phenyl)-(3-methyl-but-2-enyl)-amino]-1,1-dimethyl-ethyl}-amide] registered an IC50 of 630 nM.

`CC(C)=CCN(CC(C)(C)NC(=O)[C@H](CC(C)C)N(C)Cc1ccc(C(C)(C)C)cc1)c1ccc(OCc2ccccc2)cc1` [Example 13, (S)-2-[(4-tert-Butyl-benzyl)-methyl-amino]-4-methyl-pentanoic acid {2-[(4-benzyloxy-phenyl)-(3-methyl-but-2-enyl)-amino]-1.1-dimethyl-ethyl}-amide] had a half-maximal inhibitory concentration (IC50) of 5600 nM.

Regarding `CC(C)CCN(C)[C@@H](CC(C)C)C(=O)NC(C)(C)CN(c1ccc(OCc2ccccc2)cc1)C1C=CCCC1` (stereo partly drawn) [Example 17, (S)-4-Methyl-2-[methyl-(3-methyl-butyl)-amino]-pentanoic acid {2-[(4-benzyloxy-phenyl)-cyclohex-2-enyl-amino]-1,1-dimethyl-ethyl}-amide], under “5 μM nitrendipine”, the inhibition at 1 µM is 57% and the inhibition at 10 µM came to 80%.

Regarding `CC(C)=CCN(c1ccc(OCc2ccccc2)cc1)C1CCN(C(=O)[C@H](N)CC(C)C)CC1` [Example 21, (R)-2-Amino-1-{4-[(4-benzyloxy-phenyl)-(3-methyl-but-2-enyl)-amino]-piperidin-1-yl}-4-methyl-pentan-1-one], where the note is “5 μM nitrendipine”, the inhibition at 1 µM amounted to 43% and the inhibition at 10 µM amounted to 92%.

The compound `CC(C)=CCN(c1ccc(OCc2ccccc2)cc1)C1CCN(C(=O)[C@H](CC(C)C)NC(C)C)CC1` [Example 24, (S)-1-{4-[(4-Benzyloxy-phenyl)-(3-methyl-but-2-enyl)-amino]-piperidin-1-yl}-2-isopropylamino-4-methyl-pentan-1-one] came in with a half-inhibitory concentration (IC50) of 750 nM. This counts as sub-micromolar.

In the case of `CC(C)=CCN(c1ccc(OCc2ccccc2)cc1)C1CCN(C(=O)[C@H](CC(C)C)NC2CCCCC2)CC1` [Example 26, (S)-1-{4-[(4-Benzyloxy-phenyl)-(3-methyl-but-2-enyl)-amino]-piperidin-1-yl}-2-cyclohexylamino-4-methyl-pentan-1-one], 510 nM corresponded to half-maximal inhibition (IC50). This IC50 and that of the compound before are within 1.5-fold of each other.
